Test results as given in US11878975B2, “Substituted indole compounds useful as TLR inhibitors” (BRISTOL-MYERS SQUIBB COMPANY, priority 2017, dated 2024).

Key:
Format in all cases: cell-based
human TLR7 = target: T1, human TLR7 (Homo sapiens, UniProt Q9NYK1); assay: TLR7 inhibition reporter assay (HEK-Blue cells, SEAP reporter, gardiquimod stimulation); conditions: HEK-Blue cells overexpressing human TLR7, SEAP reporter, gardiquimod 7.5 μM
T1 construct: host or cells: HEK-Blue cells
T1 sequence (Q9NYK1 27-1049): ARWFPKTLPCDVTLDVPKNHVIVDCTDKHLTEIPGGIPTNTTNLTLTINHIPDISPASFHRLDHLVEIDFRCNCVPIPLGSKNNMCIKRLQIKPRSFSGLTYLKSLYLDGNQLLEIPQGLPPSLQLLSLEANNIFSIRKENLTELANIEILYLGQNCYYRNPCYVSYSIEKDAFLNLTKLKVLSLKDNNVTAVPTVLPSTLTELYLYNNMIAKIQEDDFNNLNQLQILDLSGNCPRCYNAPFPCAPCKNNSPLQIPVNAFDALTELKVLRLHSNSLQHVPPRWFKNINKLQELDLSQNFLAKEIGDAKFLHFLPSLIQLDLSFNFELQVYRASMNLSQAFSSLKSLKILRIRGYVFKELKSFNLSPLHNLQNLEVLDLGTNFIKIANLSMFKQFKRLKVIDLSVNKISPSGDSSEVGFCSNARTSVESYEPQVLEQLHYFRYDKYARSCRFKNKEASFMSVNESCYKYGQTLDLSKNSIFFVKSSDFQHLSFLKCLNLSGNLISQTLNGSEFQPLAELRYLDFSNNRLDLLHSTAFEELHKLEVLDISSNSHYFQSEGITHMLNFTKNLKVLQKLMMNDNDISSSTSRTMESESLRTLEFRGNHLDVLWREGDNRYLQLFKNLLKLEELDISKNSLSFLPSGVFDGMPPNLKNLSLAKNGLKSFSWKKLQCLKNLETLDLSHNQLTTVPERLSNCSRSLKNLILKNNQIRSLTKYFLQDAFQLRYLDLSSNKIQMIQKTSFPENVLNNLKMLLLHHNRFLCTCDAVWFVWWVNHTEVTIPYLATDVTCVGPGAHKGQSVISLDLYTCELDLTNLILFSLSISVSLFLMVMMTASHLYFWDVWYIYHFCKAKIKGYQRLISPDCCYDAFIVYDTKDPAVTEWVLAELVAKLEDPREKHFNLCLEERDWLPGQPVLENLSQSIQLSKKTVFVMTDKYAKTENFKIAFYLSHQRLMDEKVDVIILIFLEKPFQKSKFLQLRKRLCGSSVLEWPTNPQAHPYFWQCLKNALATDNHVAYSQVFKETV
Summary of the method: (§1)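 SEAP readout after 22 h agonist exposure at 37 °C; final agonist levels were 7.5 μM gardiquimod (TLR7), 15.9 μM R848 (TLR8) and 5 nM ODN2006 (TLR9). Inhibitors, spanning 0.05 nM to 50 μM final, were applied 30 min beforehand.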

human TLR8 = target: T2, human TLR8 (Homo sapiens, UniProt Q9NR97); assay: TLR8 inhibition reporter assay (HEK-Blue cells, SEAP reporter, R848 stimulation); conditions: HEK-Blue cells overexpressing human TLR8, SEAP reporter, R848 15.9 μM
T2 construct: host or cells: HEK-Blue cells
T2 sequence (Q9NR97 27-1041): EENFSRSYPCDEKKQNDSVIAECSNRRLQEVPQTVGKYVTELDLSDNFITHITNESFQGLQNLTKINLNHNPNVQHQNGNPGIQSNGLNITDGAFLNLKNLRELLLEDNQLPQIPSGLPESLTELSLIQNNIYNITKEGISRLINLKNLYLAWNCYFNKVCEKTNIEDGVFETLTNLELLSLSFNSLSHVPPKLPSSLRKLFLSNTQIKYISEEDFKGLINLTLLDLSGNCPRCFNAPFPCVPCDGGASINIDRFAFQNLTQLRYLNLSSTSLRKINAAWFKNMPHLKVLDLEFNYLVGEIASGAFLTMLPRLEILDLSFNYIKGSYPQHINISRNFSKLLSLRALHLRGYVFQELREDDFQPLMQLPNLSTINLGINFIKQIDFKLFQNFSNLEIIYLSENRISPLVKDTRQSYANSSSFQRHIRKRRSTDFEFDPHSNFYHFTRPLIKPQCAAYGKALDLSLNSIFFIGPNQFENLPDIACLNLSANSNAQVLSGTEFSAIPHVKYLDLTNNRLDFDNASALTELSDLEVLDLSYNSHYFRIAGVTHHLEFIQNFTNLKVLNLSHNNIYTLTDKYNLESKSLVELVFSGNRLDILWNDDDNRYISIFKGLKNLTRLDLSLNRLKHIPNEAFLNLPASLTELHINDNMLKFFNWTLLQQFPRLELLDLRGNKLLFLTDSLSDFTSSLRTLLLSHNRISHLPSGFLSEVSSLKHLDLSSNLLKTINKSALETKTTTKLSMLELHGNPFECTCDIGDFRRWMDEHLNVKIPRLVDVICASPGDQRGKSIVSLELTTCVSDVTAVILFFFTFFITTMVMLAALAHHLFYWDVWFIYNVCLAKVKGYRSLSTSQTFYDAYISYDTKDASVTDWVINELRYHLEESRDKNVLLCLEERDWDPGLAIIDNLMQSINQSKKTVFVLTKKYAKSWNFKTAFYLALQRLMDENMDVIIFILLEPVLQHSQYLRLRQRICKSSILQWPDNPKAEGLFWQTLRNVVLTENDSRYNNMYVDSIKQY
Summary of the method: as §1

human TLR9 = target: T3, human TLR9 (Homo sapiens, UniProt Q9NR96); assay: TLR9 inhibition reporter assay (HEK-Blue cells, SEAP reporter, ODN2006 stimulation); conditions: HEK-Blue cells overexpressing human TLR9, SEAP reporter, ODN2006 5 nM
T3 construct: host or cells: HEK-Blue cells
T3 sequence (Q9NR96 26-1032): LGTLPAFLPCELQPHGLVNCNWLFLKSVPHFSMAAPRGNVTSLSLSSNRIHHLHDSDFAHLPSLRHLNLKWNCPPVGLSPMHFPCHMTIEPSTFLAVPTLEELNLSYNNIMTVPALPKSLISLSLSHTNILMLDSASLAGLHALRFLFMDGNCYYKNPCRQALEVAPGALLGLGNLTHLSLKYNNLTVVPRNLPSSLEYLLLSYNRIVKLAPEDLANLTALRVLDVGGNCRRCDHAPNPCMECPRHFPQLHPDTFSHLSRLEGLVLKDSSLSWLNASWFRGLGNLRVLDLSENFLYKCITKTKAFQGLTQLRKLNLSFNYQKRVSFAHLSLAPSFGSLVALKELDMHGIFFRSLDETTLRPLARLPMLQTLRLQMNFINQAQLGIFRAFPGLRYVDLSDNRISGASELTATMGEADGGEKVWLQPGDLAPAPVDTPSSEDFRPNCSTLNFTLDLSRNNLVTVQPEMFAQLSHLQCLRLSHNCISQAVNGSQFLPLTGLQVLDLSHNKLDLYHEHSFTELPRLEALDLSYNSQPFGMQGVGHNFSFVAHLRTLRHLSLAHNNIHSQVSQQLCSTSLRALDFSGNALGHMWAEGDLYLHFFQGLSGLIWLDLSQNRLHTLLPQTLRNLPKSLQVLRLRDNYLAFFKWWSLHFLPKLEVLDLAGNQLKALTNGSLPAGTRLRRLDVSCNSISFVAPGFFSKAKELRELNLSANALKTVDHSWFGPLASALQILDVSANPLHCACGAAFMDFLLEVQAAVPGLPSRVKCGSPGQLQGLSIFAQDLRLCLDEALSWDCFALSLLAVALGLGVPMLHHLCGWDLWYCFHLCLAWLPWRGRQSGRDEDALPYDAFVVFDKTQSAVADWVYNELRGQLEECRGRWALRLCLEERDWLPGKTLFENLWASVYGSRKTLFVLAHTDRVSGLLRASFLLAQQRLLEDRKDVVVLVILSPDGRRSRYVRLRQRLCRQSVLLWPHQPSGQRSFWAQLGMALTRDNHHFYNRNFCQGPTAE
Summary of the method: as §1

Structure (SMILES) | IC50 (human TLR7) | IC50 (human TLR8) | IC50 (human TLR9)
CC(C)c1c(-c2ccnc3[nH]ncc23)[nH]c2ccc(CN3CCN(C)CC3)cc12 [Example 442] | 26 nM | 4.6 nM | 7600 nM
CC(C)c1c(-c2ccnc3[nH]ncc23)[nH]c2ccc(CN3CCCCC3)cc12 [Example 443] | 279 nM | 158 nM | 2850 nM
CCc1c(-c2ccnc(C)c2)[nH]c2ccc(CNC(=O)CCC3CCNCC3)cc12 [Example 444] | 3060 nM | 9240 nM | 4960 nM
CCc1c(-c2ccnc(C)c2)[nH]c2ccc(CNC(=O)C3CCNC3)cc12 (stereo not drawn) [Example 445] | 2680 nM | 3240 nM | 1620 nM
CCc1c(-c2ccnc(C)c2)[nH]c2ccc(CNC(=O)C3CCN(C)CC3)cc12 [Example 446] | 541 nM | 70 nM | 406 nM
CCc1c(-c2ccnc(C)c2)[nH]c2ccc(CNC(=O)C3CC4(CCNCC4)C3)cc12 [Example 447] | 4010 nM | 14 nM | 1140 nM
CCc1c(-c2ccnc(C)c2)[nH]c2ccc(CNC(=O)N3CCN(C)CC3)cc12 [Example 448] | 1520 nM | 134 nM | 1250 nM
CCc1c(-c2ccnc(C)c2)[nH]c2ccc(CNC(=O)OCC3CCNCC3)cc12 [Example 449] | 1600 nM | 228 nM | 480 nM
COc1ccc(-c2[nH]c3ccc(C4CCC(N)CC4)cc3c2C(C)C)cc1OC (stereo not drawn) [Example 450] | 8 nM | 11 nM | 2200 nM
Cc1cc(-c2[nH]c3ccc([C@H]4C[C@H]4C(=O)NC4CCC5CNCC54)cc3c2C(C)C)ccn1 (stereo partly drawn) [Example 453] | 77 nM | 66 nM | 191 nM
Cc1cc(-c2[nH]c3ccc([C@H]4C[C@H]4C(=O)N4CC5CC4CN5)cc3c2C(C)C)ccn1 (stereo partly drawn) [Example 454] | 96 nM | 5.5 nM | 363 nM
Cc1cc(-c2[nH]c3ccc([C@H]4C[C@H]4C(=O)N4CC5CNCC5C4)cc3c2C(C)C)ccn1 (stereo partly drawn) [Example 455] | 188 nM | 16 nM | 326 nM
Cc1cc(-c2[nH]c3ccc([C@H]4C[C@H]4C(=O)NC4CCNCC4)cc3c2C(C)C)ccn1 [Example 456] | 124 nM | 56 nM | 224 nM

More lines, now with the values ahead:

IC50 (human TLR7) | IC50 (human TLR8) | IC50 (human TLR9) | Structure (SMILES)
1 nM | 7.4 nM | 7490 nM | COc1cc(-c2[nH]c3ccc(CC4CN(C(=O)CN(C)C)C4)cc3c2C(C)C)cn2ncnc12 [Example 434]
10 nM | 2.5 nM | 3410 nM | Cc1c(-c2[nH]c3ccc(CC4CN(C(C)C)C4)cc3c2C(C)C)cn2ncnc2c1C [Example 435]
3 nM | 11 nM | 10800 nM | Cc1c(-c2[nH]c3ccc(CC4CN(C(=O)CN(C)C)C4)cc3c2C(C)C)cn2ncnc2c1C [Example 436]
8 nM | 4.2 nM | 4720 nM | Cc1c(-c2[nH]c3ccc(CC4CN(CCS(C)(=O)=O)C4)cc3c2C(C)C)cn2ncnc2c1C [Example 437]
5 nM | 37 nM | 2100 nM | COc1cc(-c2[nH]c3ccc(CCC4CN(C)C4)cc3c2C(C)C)cn2ncnc12 [Example 438]
1 nM | 6.3 nM | 2240 nM | COc1cc(-c2[nH]c3ccc(CCC4CN(C(=O)CN(C)C)C4)cc3c2C(C)C)cn2ncnc12 [Example 439]
4 nM | 16 nM | 1480 nM | COc1cc(-c2[nH]c3ccc(CCC4CNC4)cc3c2C(C)C)cn2ncnc12 [Example 440]
2 nM | 3.8 nM | 2570 nM | COc1cc(-c2[nH]c3ccc(CCC4CN(CC(C)(C)O)C4)cc3c2C(C)C)cn2ncnc12 [Example 441]
139 nM | 238 nM | 19500 nM | COc1ccc(-c2[nH]c3ccc(C4CCC(O)CC4)cc3c2C(C)C)cc1OC (stereo not drawn) [Example 451]
242 nM | 737 nM | 46500 nM | COc1ccc(-c2[nH]c3ccc(C4CCC(O)CC4)cc3c2C(C)C)cc1OC (stereo not drawn) [Example 452]
